Results reported in patent US9597274B2, “Peptides and their use in the treatment of skin” (Avon Products, Inc., priority 2015, dated 2017).

Experiments:
[1] = test system: Human dermal fibroblast cells; experiment: Pro-collagen I secretion into the media (HTRF human pro-collagen I kit) after 48 h peptide treatment; format: cell-based; details: percent change relative to vehicle control
Protocol: (§1) Human dermal fibroblast cells were grown in a 96 well plate in DMEM media (available from Corning, N.Y.) supplemented with 10% Fetal Bovine Serum (FBS) and L-glutamine (0.07×10^5 cells/plate). After reaching about 75% confluence, cells were transferred into DMEM media without FBS and incubated for 4-6 hours. Next, cells were treated with a peptide at 0.00001%, 0.0001%, 0.001% final concentration in DMEM media without FBS for 48 h. After treatment, the media were collected and cell viability was measured using MTT. The amount of collagen secreted was tested in the media using HTRF human pro-collagen I kit (available from Cisbio Inc., Bedford, Mass.). The amount of secreted Hyaluronic Acid (HA) was tested in the media using HA Elisa kit (available from Corgenix, Broomfield, Colo.).
(§2) The results are summarized in Table 12 below as percent change of pro-collagen I and/or HA production relative to vehicle control (peptide concentrations provided in parentheses) using the following keys: […]

[2] = test system: Human dermal fibroblast cells; experiment: Secreted hyaluronic acid (HA) in the media (HA Elisa kit) after 48 h peptide treatment; format: cell-based; details: percent change relative to vehicle control
Protocol: as §1, §2

[3] = peptide tested at 0.00001%, 0.0001%, 0.001%, concentration not given

Substance	Increase in Pro-Collagen I Production [1, 3]	Increase in HA Production ([2]; peptide concentration 0.001%)	Increase in HA Production [2, 3]	Increase in HA Production ([2]; peptide concentration 0.0001%)	Increase in Pro-Collagen I Production ([1]; peptide concentration 0.001%)
LRLK (listed as Homo sapiens)	0 (0: <10%)	+(0.001%) (+: 20-50%)	–	–	–
LENTKRS (listed as Homo sapiens)	0 (0: <10%)	–	0 (0: <20%)	–	–
MVV (listed as Homo sapiens)	0 (0: <10%)	–	–	+(0.0001%) (+: 20-50%)	–
GDALQPE (listed as Homo sapiens)	0 (0: <10%)	–	0 (0: <20%)	–	–
QPED (listed as Homo sapiens)	0 (0: <10%)	–	0 (0: <20%)	–	–
QILSKLRL (listed as Homo sapiens)	–	–	–	–	+(0.001%) (+: 10-30%)
